Experimental findings from patent publication US10736923B2, “Methods and compositions for generating chondrocyte lineage cells and/or cartilage like tissue” (UNIVERSITY HEALTH NETWORK, priority 2013, dated 2020) are described below.

What all share (assay type): cell-based, human
One assay concerns hiPSCs. Kind of assay: Induction of primitive streak-like mesoderm from hiPSCs, flow cytometry. Particulars: hIPSCs induced with Activin A 3 ng/ml, BMP4 1 ng/ml, basic FGF 5 ng/ml and CHIR99061 1 micromolar, day 1 to day 3. The source says:
FIG. 1. Serum-free differentiation of paraxial mesoderm, chondrocyte progenitors, and cartilage tissues from human pluripotent stem cells (hPSCs). […] On day 4 (T4), mesoderm populations are monitored by the expression of CD56 and PDGFRa on the cell surface by flow cytometry (B). Day 4 mesoderm cells are specified to a paraxial mesoderm fate in monolayer culture by treatment of Dorsomorphin, a BMP inhibitor, a TGFbeta inhibitor SB431542, and bFGF, from days 4 to 6 and bFGF from days 4 to 15 (stage 2). Day 15 paraxial mesoderm cells can generate chondrocyte progenitors by plating in a high density ‘spot’ termed micromass, or by plating onto collagen coated membrane filters (not shown) in the presence of TGFB3 for approximately 10 days (stage 3). Chondrocyte progenitors can be specified to articular chondrocytes or growth plate-like chondrocytes in a cartilage tissue format during stage 4 of differentiation by extended stimulation with TGFB3 (articular) or […] (growth plate-like) for example for 12 weeks. Tissues have been kept in culture for at least 7 months.

The test system of assay [1] is hPSC-derived paraxial mesoderm. Kind of assay: Chondrocyte specification in micromass culture with TGFB3 or BMP4 (histology, scatter flow cytometry, qRT-PCR, immunostaining). To be noted: for forward and side scatter of live cells (cell size, granularity): 3 week and 5 week micromasses; for chondrocyte morphology: 5 week old micromasses; for Lubricin protein (immunohistochemistry): 12 week micromass tissue; for tissue histology (toluidine blue), chondrocyte size: 13 week old tissues, GDF5 instead of BMP4; for COL2A1 expression / SOX9 expression: qRT-PCR, by 2 weeks of culture. The source says: FIG. 4. TGFB3 and BMP4 specify chondrocytes and cartilage-like tissues with articular cartilage and growth plate cartilage phenotypes. (A) Micrographs of 5 week old micromasses derived with TGFB3 or BMP4, 20× magnification. (B) Tissue histology (stained with toluidine blue) of 13 week cartilage tissues derived with TGFB3 or BMP4. […] (C) Flow cytometric analysis of forward and side cell scatter parameters of 3 week and 5 week old micromasses. Side scatter indicates cell granularity and forward cell scatter indicates cell size. (D) Comparison of hPSC-derived micromass tissues to fetal primary chondrocyte derived micromass tissues and the developing human fetal femur cartilage. Articular cartilage regions appear to have smaller cells in size compared to growth plate like regions, which contain cells which appear enlarged (hypertrophic). Cartilage tissues in micromass as well as in the fetal femur stain uniformly with the toluidine blue stain (images are pink/purple in color and indicate the presence of cartilage proteins). The BMP4-treated micromass tissues contain a large number of enlarged cells which is similar to the bottom panel of the fetal cartilage which represents a growth plate cartilage. TGFB3 treated micromass cultures contain fewer, if any, enlarged chondrocytes, and appear similar to the upper panel of the fetal cartilage which is the site of articular cartilage. (E) Micrograph using GDF5 instead of BMP4 to generate hypertrophic chondrocytes. (F) Histological analyses of cartilage tissues derived from hiPSCs stained with Toluidine blue after 12 weeks. (G,H) Immunohistochemical staining of hESC-derived cartilage tissues for type II Collagen (G, 8 week tissues), and lubricin (H, 12 week tissues).
FIG. 5. Gene expression analyses of chondrocyte specification in the presence of TGFB3 or BMP4 during stages 3 and 4 of differentiation respectively. General chondrocyte genes Sox9 (A) and collagen 2 (B), hypertrophic genes collagen 10 (C), Runx2 (D), osterix (E) and alkaline phosphatase (F), articular cartilage associated genes lubricin (G) and cartilage intermediate layer protein 2 (CILP2) (H), interzone-related (joint progenitor) genes GDF5 (I), ERG (J) and Wnt9a (K). Expression is copy number relative to TBP (n=3 to 8 biological replicates) and is compared to primary fetal chondrocytes (aged 16 to 19 weeks, n=4), primary healthy adult articular chondrocytes (n=2), and growth plate-like chondrocytes isolated from the iliac crest of an adult (n=1). T15 Mesoderm indicates day 15 hESC-derived paraxial mesoderm (DM+FGF-treated). Error bars indicate s.e.m.
FIG. 8. TGFβ1, TGFβ2, and TGFβ3 generated articular chondrocytes from hPSC-derived paraxial mesoderm. COL2A1, lubricin, and CILP2 gene expression after 12 weeks of micromass culture in the presence of TGF agonists as indicated (10 ng/ml). Values represent copy number mRNA relative to TBP. Error bars indicate s.e.m.
Previous studies have shown that TGFBeta/BMP signaling is required to generate chondrocyte progenitors from paraxial mesoderm. […] Following 10 days of TGFb3 treatment (day 25 total), cultures could be switched to media containing BMP4 or maintained in TGFb3 (stage 4) in order to specify subsets of chondrocytes (articular/non-hypertrophic or growth plate/hypertrophic). To determine the chondrocyte potential of the day 15 mesoderm populations, the cells were plated at high cell density in a 20 microliter volume on tissue culture treated Petri dishes for an hour (micromass) and then the ‘spot’ was submerged/covered with media. In our initial studies, the cells were ‘spotted’ in a media containing 2% fetal bovine serum. However, this short serum exposure can be omitted with no effects on cartilage formation at later stages, making this protocol optionally serum-free. After 2 to 3 days, serum-free media containing TGFb3 is added to the culture to generate chondrocyte progenitors. […]

The test system of assay [2] is hPSC-derived chondrocytes. In words: CD73 flow cytometry of hPSC-derived cartilage tissues. To be noted: hPSC-derived cartilage tissues after 11 weeks. The source says:
(§1) FIG. 6. CD73 is expressed by articular chondrocytes. Flow cytometric analyses of primary chondrocytes (A) Healthy adult articular chondrocytes and iliac crest GPC-like chondrocytes, (B) Primary fetal chondrocytes, primary (C) or passaged (passage (P)2, D) fetal chondrocytes after 9 to 10 weeks of micromass culture in the presence of TGFB3 or BMP4, and (E) hPSC-derived chondrocytes after 11 weeks derived in the presence of TGFB3 or BMP4. (F) Time course of CD73 and PDGFR-beta cells surface expression on T12 and T15 paraxial mesoderm populations, and micromass cultures treated with TGFB3 after 3 days, 10 days, and 2 weeks. (G) Time course of CD73 expression on TGFB3-treated micromasses after 3 days, 7 days, 10 days, and 2 to 5 weeks.
Primary (P0) and passaged (P2) fetal chondrocytes can also be cultured in micromass with TGFB3 or BMP4, similar to how hPSC-derived cartilage tissues are formed. TGFB3-treated fetal P0-derived or fetal P2-derived cartilage tissues contain over 93% CD73 positive cells, while BMP4 treatment reduces the percentage of CD73+ cells to 70% and 61% respectively (FIG. 6C,D). CD73 expression is also expressed by over 98% of hPSC-derived cartilage tissues derived with TGFB3-treatment (FIG. 6E). The percentage of CD73+ cells is reduced to only about 57% of cells after BMP4-treatment. […]

Another assay relates to fetal chondrocytes. In words: CD73 flow cytometry of fetal chondrocytes in micromass culture. To be noted: 9 to 10 weeks of micromass culture.
Text: as §1
Primary (P0) and passaged (P2) fetal chondrocytes can also be cultured in micromass with TGFB3 or BMP4, similar to how hPSC-derived cartilage tissues are formed. TGFB3-treated fetal P0-derived or fetal P2-derived cartilage tissues contain over 93% CD73 positive cells, while BMP4 treatment reduces the percentage of CD73+ cells to 70% and 61% respectively (FIG. 6C,D). CD73 expression is also expressed by over 98% of hPSC-derived cartilage tissues derived with TGFB3-treatment (FIG. 6E). The percentage of CD73+ cells is reduced to only about 57% of cells after BMP4-treatment. Thus, CD73 marks primary healthy adult ACs, a proportion of healthy fetal chondrocytes, fetal chondrocytes or passaged fetal chondrocytes cultured as micromasses in TGFB3, and TGFB3-treated articular chondrocyte-like cells derived from human PSCs.

The mark [3] stands for this setting: 8- to 12-week old tissue, versus tissue maintained in TGFb3.
The mark [4] stands for this setting: passaged (P2) fetal chondrocytes.
Where [5] appears, read: primary (P0) fetal chondrocytes.

Consider `Cc1cnc(-c2cnc(NCCNc3ccc(C#N)cn3)nc2-c2ccc(Cl)cc2Cl)[nH]1` [CHIR99061], for which the “expression of cell surface markers CD56, PDGFRalpha and KDR” value with hiPSCs is “also expresses CD56, PDGFRalpha and KDR”.
On to BMP4: Bone Morphogenetic Protein 4, for which, in assay [1], the “forward and side scatter of live cells (cell size, granularity)” value is “larger forward scatter (FSC)”; the chondrocyte morphology entry was “round with cobblestone-like appearance”; the “Lubricin protein (immunohistochemistry)” value is reported as “not”; the “tissue histology (toluidine blue), chondrocyte size” value is on record as “enlarged hypertrophic chondrocytes”. In addition, in assay [1], the COL2A1 expression entry is given as “upregulated” and the SOX9 expression result is recorded as “upregulated”. For the same molecule, in assay [1] (setting [3]), the COL10A1 expression result is listed as “significantly higher”, the RUNX2 expression entry is “significantly higher”, the SP7 expression entry is recorded as “significantly higher” and the “alkaline phosphatase (ALP/ALPL) expression” value was “significantly higher”. For the same molecule, the “cartilage tissue formation on direct plating of day 15 mesoderm” value in assay [1] (direct plating into BMP4 containing media, no TGFB3 stimulation) is recorded as “non-adherent cell aggregates that did not form cartilage tissue”. The CD73 positive cells result in assay [2] is “about 57%”. Moreover, the CD73 positive cells in the assay with fetal chondrocytes (setting [4]) was 61%. Moreover, in the assay on fetal chondrocytes (setting [5]), the CD73 positive cells was 70%.

B1: TGFB3: TGFbeta agonist (protein, UniProt P10600 301-412, looked up)
Transforming growth factor …: ALDTNYCFRNLEENCCVRPLYIDFRQDLGWKWVHEPKGYYANFCSGPCPYLRSADTTHSTVLGLYNTLNPEASASPCCVPQDLEPLTILYYVGRTPKVEQLSNMVVKSCKCS
For B1, in assay [1], the “forward and side scatter of live cells (cell size, granularity)” value is reported as “tight population of smaller, less granular cells”; the chondrocyte morphology entry is recorded as “small fibroblastic-like phenotype”; the “Lubricin protein (immunohistochemistry)” value is on record as “present”; the “tissue histology (toluidine blue), chondrocyte size” value is on record as “small cells (chondrocytes) dispersed evenly throughout the tissue”. In assay [1], the COL2A1 expression entry is on record as “upregulated” and the SOX9 expression entry is recorded as “upregulated”. Besides, the “expression of mature AC genes, such as lubricin and CILP2” value in assay [1] (extended period of time (up to 12 weeks)) was “allows for the expression of mature AC genes”. The CD73 positive cells result in assay [2] was “over 98%”. Also, in the assay on fetal chondrocytes (setting [4]), the CD73 positive cells entry is listed as “over 93%”. For the same molecule, in the assay with fetal chondrocytes (setting [5]), the CD73 positive cells entry was “over 93%”.
